# Experimental data from patent US11998610B2, “Conjugates and methods of using the same” (Flagship Pioneering Innovations V, Inc., priority 2018, dated 2024).
# Non-standard residues stand in square brackets, D forms with d. Residues, ends and D or L forms follow the SMILES beside them. *: point of attachment. Octanoyl = CCCCCCCC(=O)*
# Key:
# E. coli BL21(DE3) = test: Cell-based assay with ClbP with LCMS, ClbP negative strain; settings: 10 μM compound, 37° C., 20 h
# Experimental: (§1) This example is representative of the methods described in Example 97. ClbP was tested for its ability to activate compounds. […] Each of these three strains was struck out onto an appropriate solid media such as LB agar or BHI agar. The bacteria were then grown aerobically overnight at 37° C.
# (§2) A single colony was isolated from the plate and inoculated into 10 mL LB. The liquid cultures were grown overnight aerobically at 37° C. with rocking on a nutator.
# (§3) The saturated E. coli cultures were transferred into a biosafety cabinet. 5 μL of each culture was inoculated into fresh LB broth (200 μL total, 1:40 (v/v) dilution of the overnight culture), and the tested compound was added to a final concentration of 10 μM. To establish the native stability of the compound in media alone, the compound was also added to uninoculated media at a final concentration of 10 μM. Each compound was tested in duplicate with each strain or the media-alone incubation. The plate was sealed and incubated aerobically on a nutator at 37° C. for 20 h.
# (§4) After 20 h, the reactions were stopped by addition of 200 μL acetonitrile. The contents of each well were mixed, and then the plate was centrifuged (4,000 rpm, 10 min). The plate was diluted serially to a final dilution of 1:100 first with Acetonitrile (10× dilution) and then with (4:1) Mobile Phase A-20 mM ammonium formate+water:Mobile Phase B-Isopropanol:Methanol:Water (4:4:2)+20 mM ammonium formate (10× dilution).
# (§5) The amount of each remaining parent compound in each incubation was quantified by LC-MS analysis, with multiple-reaction monitoring targeting transitions specific to each parent compound.
# (§6) The amount of compound present in the media-alone condition was normalized to 100%. The amount of parent compound present in the reaction with the ClbP-encoding E. coli (E. coli CFT073 ATCC 700928 and/or E. coli Nissle 1917) was compared to the amount present in the media-alone and expressed as a percent. Likewise, the amount of parent compound present in the reaction with the negative control E. coli BL21(DE3) was compared to the amount present in the media-alone and expressed as a percent.
# (§7) In an ideal case, the amount of residual starting material in the reaction(s) with ClbP-encoding E. coli was <25% of the amount in the E. coli BL21(DE3) and media-alone conditions. In an acceptable case, the amount of residual starting material in the reaction(s) with ClbP-encoding E. coli was 25-75% of the amount in the E. coli BL21(DE3) and media-alone conditions. In a non-preferred case, the amount of residual starting material in the reaction(s) with ClbP-encoding E. coli was >75% of the amount in the E. coli BL21(DE3) and media-alone conditions.
# [1] = system: E. coli CFT073 ATCC 700928 and/or E. coli Nissle 1917; test: Cell-based assay with ClbP with LCMS, ClbP positive strain; settings: for % Remaining in ClbP Positve Relative to Media-Only: ClbP-encoding E. coli, 10 μM compound, 37° C., 20 h; for Difference between the ClbP Positive and ClbP Negative release profiles: conclusion from Table 4
# Experimental: as §1, §2, §3, §4, §5, §6, §7
structure (smiles),measurement,setting,value
"CCCCCCCC(=O)N[C@H](CC(N)=O)C(=O)N[C@@H](C)CNC(=O)Oc1ccc(Br)cc1 [Example 48, 4-bromophenyl ((S)-2-((R)-4-amino-2-octanamido-4-oxobutanamido)propyl)carbamate]",% Remaining in ClbP Negative Relative to Media-Only,E. coli BL21(DE3),+ (between 25-75% compound remaining in the 20 μM WT ClbP reaction relative to the no-enzyme control)
same,% Remaining in ClbP Positve Relative to Media-Only,[1],+ (between 25-75% compound remaining in the 20 μM WT ClbP reaction relative to the no-enzyme control)
"CCCCCCCC(=O)N[C@H](CC(N)=O)C(=O)NCCC(C)(C)C(=O)Oc1ccc2nc3c(c(CC)c2c1)Cn1c-3cc2c(c1=O)COC(=O)[C@]2(O)CC [Example 40, (S)-4,11-diethyl-4-hydroxy-3,14-dioxo-3,4,12,14-tetrahydro-1H-pyrano[3′,4′:6,7]indolizino[1,2-b]quinolin-9-yl 4-((R)-4-amino-2-octanamido-4-oxobutanamido)-2,2-dimethylbutanoate]",% Remaining in ClbP Negative Relative to Media-Only,E. coli BL21(DE3),− (>75% compound remaining in the 20 μM WT ClbP reaction relative to the no-enzyme control)
same,% Remaining in ClbP Positve Relative to Media-Only,[1],+ (between 25-75% compound remaining in the 20 μM WT ClbP reaction relative to the no-enzyme control)
"CCCCCCCCCCCCCC(=O)N[C@H](CC(N)=O)C(=O)N[C@@H](C)CNC(=O)OC [Example 23, Methyl ((S)-2-((R)-4-amino-4-oxo-2-tetradecanamidobutanamido)propyl)carbamate]",% Remaining in ClbP Negative Relative to Media-Only,E. coli BL21(DE3),− (>75% compound remaining in the 20 μM WT ClbP reaction relative to the no-enzyme control)
same,% Remaining in ClbP Positve Relative to Media-Only,[1],+ (between 25-75% compound remaining in the 20 μM WT ClbP reaction relative to the no-enzyme control)
"CCCCCCCC(=O)N[C@H](CC(N)=O)C(=O)NCCC(C)(C)C(=O)Oc1ccc2c(C)cc(=O)oc2c1 [Example 72A, 4-methyl-2-oxo-2H-chromen-7-yl (R)-4-(4-amino-2-octanamido-4-oxobutanamido)-2,2-dimethylbutanoate]",% Remaining in ClbP Negative Relative to Media-Only,E. coli BL21(DE3),+ (between 25-75% compound remaining in the 20 μM WT ClbP reaction relative to the no-enzyme control)
same,% Remaining in ClbP Positve Relative to Media-Only,[1],+ (between 25-75% compound remaining in the 20 μM WT ClbP reaction relative to the no-enzyme control)
"CCCCCCCCCCCCCC(=O)N[C@H](CC(N)=O)C(=O)N[C@@H](C)CCC(=O)Oc1ccc2nc3c(c(CC)c2c1)Cn1c-3cc2c(c1=O)COC(=O)[C@]2(O)CC [Example 24, (S)-4,11-diethyl-4-hydroxy-3,14-dioxo-3,4,12,14-tetrahydro-1H-pyrano[3′,4′:6,7]indolizino[1,2-b]quinolin-9-yl (S)-4-((R)-4-amino-4-oxo-2-tetradecanamidobutanamido)pentanoate]",% Remaining in ClbP Negative Relative to Media-Only,E. coli BL21(DE3),− (>75% compound remaining in the 20 μM WT ClbP reaction relative to the no-enzyme control)
same,% Remaining in ClbP Positve Relative to Media-Only,[1],+ (between 25-75% compound remaining in the 20 μM WT ClbP reaction relative to the no-enzyme control)
"CCCCCCCC(=O)N[C@H](CC(N)=O)C(=O)NCCNC(=O)OC [Example 46, Methyl (R)-(2-(4-amino-2-octanamido-4-oxobutanamido)ethyl)carbamate]",% Remaining in ClbP Negative Relative to Media-Only,E. coli BL21(DE3),− (>75% compound remaining in the 20 μM WT ClbP reaction relative to the no-enzyme control)
same,% Remaining in ClbP Positve Relative to Media-Only,[1],++ (<25% compound remaining in the 20 μM WT ClbP reaction relative to the control)
same,Difference between the ClbP Positive and ClbP Negative release profiles,[1],particularly favorable difference
"CCCC(=O)N[C@H](CC(N)=O)C(=O)N[C@@H](C)CCC(=O)Oc1ccc2nc3c(c(CC)c2c1)Cn1c-3cc2c(c1=O)COC(=O)[C@]2(O)CC [Example 58, (S)-4,11-diethyl-4-hydroxy-3,14-dioxo-3,4,12,14-tetrahydro-1H-pyrano[3′,4′:6,7]indolizino[1,2-b]quinolin-9-yl (S)-4-((R)-4-amino-2-butyramido-4-oxobutanamido)pentanoate]",% Remaining in ClbP Negative Relative to Media-Only,E. coli BL21(DE3),+ (between 25-75% compound remaining in the 20 μM WT ClbP reaction relative to the no-enzyme control)
same,% Remaining in ClbP Positve Relative to Media-Only,[1],++ (<25% compound remaining in the 20 μM WT ClbP reaction relative to the control)
"CCCCCCNC(=O)N[C@H](CC(N)=O)C(=O)N[C@@H](C)C(=O)OC [Example 53, Methyl (hexylcarbamoyl)-D-asparaginyl-L-alaninate]",% Remaining in ClbP Negative Relative to Media-Only,E. coli BL21(DE3),− (>75% compound remaining in the 20 μM WT ClbP reaction relative to the no-enzyme control)
same,% Remaining in ClbP Positve Relative to Media-Only,[1],++ (<25% compound remaining in the 20 μM WT ClbP reaction relative to the control)
same,Difference between the ClbP Positive and ClbP Negative release profiles,[1],particularly favorable difference
"CCCCCCCC(=O)N[C@H](CC(N)=O)C(=O)Nc1ccc(COC)cc1 [Example 44, (R)—N1-(4-(methoxymethyl)phenyl)-2-octanamidosuccinamide]",% Remaining in ClbP Negative Relative to Media-Only,E. coli BL21(DE3),− (>75% compound remaining in the 20 μM WT ClbP reaction relative to the no-enzyme control)
same,% Remaining in ClbP Positve Relative to Media-Only,[1],− (>75% compound remaining in the 20 μM WT ClbP reaction relative to the no-enzyme control)
"CCCCCCCC(=O)N[C@H](Cc1c[nH]cn1)C(=O)N[C@@H](C)C(=O)OC [Example 54, Methyl octanoyl-D-histidyl-L-alaninate] (Octanoyl-[dH]-Ala-OMe)",% Remaining in ClbP Negative Relative to Media-Only,E. coli BL21(DE3),+ (between 25-75% compound remaining in the 20 μM WT ClbP reaction relative to the no-enzyme control)
same,% Remaining in ClbP Positve Relative to Media-Only,[1],+ (between 25-75% compound remaining in the 20 μM WT ClbP reaction relative to the no-enzyme control)
"CCCCCCCCCCCCCC(=O)N[C@H](CC(N)=O)C(=O)NCCN(C)C(=O)OC [Example 30, Methyl (R)-(2-(4-amino-4-oxo-2-tetradecanamidobutanamido)ethyl)(methyl)carbamate]",% Remaining in ClbP Negative Relative to Media-Only,E. coli BL21(DE3),− (>75% compound remaining in the 20 μM WT ClbP reaction relative to the no-enzyme control)
same,% Remaining in ClbP Positve Relative to Media-Only,[1],+ (between 25-75% compound remaining in the 20 μM WT ClbP reaction relative to the no-enzyme control)
"CCCCCCCCCCCCCC(=O)N[C@H](CC(N)=O)C(=O)NCCN(C)C(=O)Oc1ccc(Br)cc1 [Example 31, 4-bromophenyl (R)-(2-(4-amino-4-oxo-2-tetradecanamidobutanamido)ethyl)(methyl)carbamate]",% Remaining in ClbP Negative Relative to Media-Only,E. coli BL21(DE3),− (>75% compound remaining in the 20 μM WT ClbP reaction relative to the no-enzyme control)
same,% Remaining in ClbP Positve Relative to Media-Only,[1],− (>75% compound remaining in the 20 μM WT ClbP reaction relative to the no-enzyme control)
